Experimental data taken from patent US11267825B2 (AICURIS GMBH & CO. KG, priority 2017, dated 2022).

What was measured:
[1] = system: HBV; experiment: Determination of HBV DNA from the supernatants of HepAD38 cells (anti-HBV activity); assay type: cell-based, hepatitis B virus; conditions: Hepatitis B virus, 144 h; HBV DNA in HepAD38 supernatant at day 6; read-out: Cell Activity (EC50)
Outline: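 EC50 values were obtained by non-linear regression of HBV DNA copy numbers measured by qPCR against pCH-9/3091 plasmid standards. The DNA came from filtered supernatants collected on day 6. Before that, tetracycline-withdrawn HepAD38 cells had been exposed to serial half-log compound dilutions, with tetracycline-treated cells as the non-producing control.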

[2] = target: HBV core protein (UniProt P03146); assay type: biochemical; conditions: read-out: Assembly Activity (IC50); BODIPY-FL labelled core protein, assembly started with NaCl, read after 6 min
Outline: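 Compounds tested at 8 concentrations in 0.5-log steps from 100, 31.6 or 10 μM against 1.0–2.0 μM BODIPY-FL-labelled Cys150 core dimers (residues 1–149), 50 mM HEPES pH 7.5. NaCl ([…] final) triggered assembly; quenching read at 6 min, 477/525 nm, with 2.5 M and 0 M NaCl as controls; EC50 by nonlinear fit.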

Chain of HBV core protein (P03146 whole entry, looked up, the tested form may be a part): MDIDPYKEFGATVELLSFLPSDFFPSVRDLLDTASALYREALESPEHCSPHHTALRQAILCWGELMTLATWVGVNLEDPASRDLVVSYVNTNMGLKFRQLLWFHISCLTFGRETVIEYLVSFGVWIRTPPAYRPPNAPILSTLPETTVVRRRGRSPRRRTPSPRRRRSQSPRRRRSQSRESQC

Row | SMILES | EC50 [1] [µM] | IC50 [2] [µM]
1 | Cc1nc2c(s1)CN(C(=O)c1cc3c(Cl)cc(Cl)cc3[nH]1)CC2 [Example 188, 4,6-dichloro-2-{2-methyl-4H,5H,6H,7H-[1,3]thiazolo[5,4-c]pyridine-5-carbonyl}-1H-indole] | 1 to 10 | 5 to 10
2 | Cc1nc2c(s1)CN(C(=O)c1cc3cccc(Cl)c3[nH]1)CC2 [Example 189, 7-chloro-2-{2-methyl-4H,5H,6H,7H-[1,3]thiazolo[5,4-c]pyridine-5-carbonyl}-1H-indole] | 1 to 10 | 5 to 10
3 | Cc1nc2c(s1)CN(C(=O)c1cc3c(C)cc(F)cc3[nH]1)CC2 [Example 190, 6-fluoro-4-methyl-2-{2-methyl-4H,5H,6H,7H-[1,3]thiazolo[5,4-c]pyridine-5-carbonyl}-1H-indole] | < 1 | < 5
4 | Cc1nc2c(s1)CN(C(=O)c1cc3c(F)ccc(F)c3[nH]1)CC2 [Example 191, 4,7-difluoro-2-{2-methyl-4H,5H,6H,7H-[1,3]thiazolo[5,4-c]pyridine-5-carbonyl}-1H-indole] | < 1 | 5 to 10
5 | Cc1nc2c(s1)CN(C(=O)c1cc3c(F)c(F)ccc3[nH]1)CC2 [Example 193, 4,5-difluoro-2-{2-methyl-4H,5H,6H,7H-[1,3]thiazolo[5,4-c]pyridine-5-carbonyl}-1H-indole] | < 1 | < 5
6 | COc1cccc2[nH]c(C(=O)N3CCc4nc(C)sc4C3)cc12 [Example 194, 4-methoxy-2-{2-methyl-4H,5H,6H,7H-[1,3]thiazolo[5,4-c]pyridine-5-carbonyl}-1H-indole] | < 100 | < 100
7 | Nc1nc2c(s1)CN(C(=O)c1cc3c(F)cccc3[nH]1)CC2 [Example 195, 5-(4-fluoro-1H-indole-2-carbonyl)-4H,5H,6H,7H-[1,3]thiazolo[5,4-c]pyridin-2-amine] | 1 to 10 | 5 to 10
8 | Nc1nc2c(s1)CN(C(=O)c1cc3cc(F)ccc3[nH]1)CC2 [Example 196, 5-(5-fluoro-1H-indole-2-carbonyl)-4H,5H,6H,7H-[1,3]thiazolo[5,4-c]pyridin-2-amine] | 1 to 10 | < 5
9 | Nc1nc2c(s1)CN(C(=O)c1cc3ccc(F)cc3[nH]1)CC2 [Example 197, 5-(6-fluoro-1H-indole-2-carbonyl)-4H,5H,6H,7H-[1,3]thiazolo[5,4-c]pyridin-2-amine] | < 1 | < 5
10 | Nc1nc2c(s1)CN(C(=O)c1cc3ccc(C(F)(F)F)cc3[nH]1)CC2 [Example 199, 5-[6-(trifluoromethyl)-1H-indole-2-carbonyl]-4H,5H,6H,7H-[1,3]thiazolo[5,4-c]pyridin-2-amine] | < 1 | < 5
11 | O=C(c1cc2ccccc2[nH]1)N1CCc2ncsc2C1 [Example 200, 2-{4H,5H,6H,7H-[1,3]thiazolo[5,4-c]pyridine-5-carbonyl}-1H-indole] | 1 to 10 | < 5
12 | NC(=O)c1nc2c(s1)CN(C(=O)c1cc3ccccc3[nH]1)CC2 [Example 201, 5-(1H-indole-2-carbonyl)-4H,5H,6H,7H-[1,3]thiazolo[5,4-c]pyridine-2-carboxamide] | 1 to 10 | < 100
13 | O=C(c1cc2ccccc2[nH]1)N1CCc2nc(-c3ncccn3)sc2C1 [Example 202, 2-[2-(pyrimidin-2-yl)-4H,5H,6H,7H-[1,3]thiazolo[5,4-c]pyridine-5-carbonyl]-1H-indole] | 1 to 10 | 5 to 10
14 | N#Cc1nc2c(s1)CN(C(=O)c1cc3ccccc3[nH]1)CC2 [Example 203, 5-(1H-indole-2-carbonyl)-4H,5H,6H,7H-[1,3]thiazolo[5,4-c]pyridine-2-carbonitrile] | < 100 | < 100
15 | CN(C)c1nc2c(s1)CN(C(=O)c1cc3ccccc3[nH]1)CC2 [Example 204, 5-(1H-indole-2-carbonyl)-N,N-dimethyl-4H,5H,6H,7H-[1,3]thiazolo[5,4-c]pyridin-2-amine] | 1 to 10 | < 100
16 | CC1(C)OCC(CNc2nc3c(s2)CN(C(=O)c2cc4ccccc4[nH]2)CC3)O1 (stereo not drawn) [Example 205, N-[(2,2-dimethyl-1,3-dioxolan-4-yl)methyl]-5-(1H-indole-2-carbonyl)-4H,5H,6H,7H-[1,3]thiazolo[5,4-c]pyridin-2-amine] | < 1 | 5 to 10
17 | O=C(c1cc2ccccc2[nH]1)N1CCc2nc(NC3CCOCC3)sc2C1 [Example 206, 5-(1H-indole-2-carbonyl)-N-(oxan-4-yl)-4H,5H,6H,7H-[1,3]thiazolo[5,4-c]pyridin-2-amine] | < 1 | < 5

Row | SMILES | EC50 [1] [µM] | IC50 [2] [µM]
18 | O=C(c1cc2ccccc2[nH]1)N1CCc2nc(NCC(O)CO)sc2C1 (stereo not drawn) [Example 208, 3-{[5-(1H-indole-2-carbonyl)-4H,5H,6H,7H-[1,3]thiazolo[5,4-c]pyridin-2-yl]amino}propane-1,2-diol] | < 1 | < 5
19 | CN(C)c1nc2c(s1)CN(C(=O)c1cc3c(Cl)cc(F)cc3[nH]1)CC2 [Example 209, 5-(4-chloro-6-fluoro-1H-indole-2-carbonyl)-N,N-dimethyl-4H,5H,6H,7H-[1,3]thiazolo[5,4-c]pyridin-2-amine] | 1 to 10 | 5 to 10
20 | Nc1nc2c(s1)CN(C(=O)c1cc3c(Cl)cccc3[nH]1)CC2 [Example 210, 5-(4-chloro-1H-indole-2-carbonyl)-4H,5H,6H,7H-[1,3]thiazolo[5,4-c]pyridin-2-amine] | < 1 | < 5
21 | Cc1nc2c(s1)CN(C(=O)c1cc3c(Cl)cccc3[nH]1)CC2 [Example 211, 4-chloro-2-{2-methyl-4H,5H,6H,7H-[1,3]thiazolo[5,4-c]pyridine-5-carbonyl}-1H-indole] | < 1 | < 5
22 | CCC(C)(CO)CNc1nc2c(s1)CN(C(=O)c1cc3ccccc3[nH]1)CC2 (stereo not drawn) [Example 216, 2-({[5-(1H-indole-2-carbonyl)-4H,5H,6H,7H-[1,3]thiazolo[5,4-c]pyridin-2-yl]amino}methyl)-2-methylbutan-1-ol] | < 1 | 5 to 10
23 | CC(CO)CNc1nc2c(s1)CN(C(=O)c1cc3ccccc3[nH]1)CC2 (stereo not drawn) [Example 217, 3-{[5-(1H-indole-2-carbonyl)-4H,5H,6H,7H-[1,3]thiazolo[5,4-c]pyridin-2-yl]amino}-2-methylpropan-1-ol] | < 1 | < 5
24 | O=C(c1cc2c(F)cc(F)cc2[nH]1)N1CCc2nc(NC3(CO)CCC3)sc2C1 [Example 218, (1-{[5-(4,6-difluoro-1H-indole-2-carbonyl)-4H,5H,6H,7H-[1,3]thiazolo[5,4-c]pyridin-2-yl]amino}cyclobutyl)methanol] | < 1 | 5 to 10
25 | CC(C)(C)OC(=O)N1CCC(O)(CNc2nc3c(s2)CN(C(=O)c2cc4ccccc4[nH]2)CC3)CC1 [Example 219, tert-butyl 4-hydroxy-4-({[5-(1H-indole-2-carbonyl)-4H,5H,6H,7H-[1,3]thiazolo[5,4-c]pyridin-2-yl]amino}methyl)piperidine-1-carboxylate] | < 1 | 5 to 10
26 | Nc1nc2c(s1)CN(C(=O)c1[nH]c3ccccc3c1F)CC2 [Example 220, 5-(3-fluoro-1H-indole-2-carbonyl)-4H,5H,6H,7H-[1,3]thiazolo[5,4-c]pyridin-2-amine] | 1 to 10 | < 100
27 | CC(C)(CO)CNc1nc2c(s1)CN(C(=O)c1cc3ccccc3[nH]1)CC2 [Example 221, 3-{[5-(1H-indole-2-carbonyl)-4H,5H,6H,7H-[1,3]thiazolo[5,4-c]pyridin-2-yl]amino}-2,2-dimethylpropan-1-ol] | < 1 | < 5
28 | O=C(c1cc2c(F)c(F)ccc2[nH]1)N1CCc2nc(NC3(CO)CCC3)sc2C1 [Example 222, (1-{[5-(4,5-difluoro-1H-indole-2-carbonyl)-4H,5H,6H,7H-[1,3]thiazolo[5,4-c]pyridin-2-yl]amino}cyclobutyl)methanol] | < 1 | < 5
29 | O=C(c1cc2c(Cl)cc(F)cc2[nH]1)N1CCc2nc(NC3(CO)CCC3)sc2C1 [Example 223, (1-{[5-(4-chloro-6-fluoro-1H-indole-2-carbonyl)-4H,5H,6H,7H-[1,3]thiazolo[5,4-c]pyridin-2-yl]amino}cyclobutyl)methanol] | < 1 | < 5
30 | O=C(c1cc2c(Cl)cccc2[nH]1)N1CCc2nc(NC3(CO)CCC3)sc2C1 [Example 224, (1-{[5-(4-chloro-1H-indole-2-carbonyl)-4H,5H,6H,7H-[1,3]thiazolo[5,4-c]pyridin-2-yl]amino}cyclobutyl)methanol] | < 1 | < 5
31 | O=C(c1cc2ccccc2[nH]1)N1CCc2nc(NCC(F)(F)CO)sc2C1 [Example 225, 2,2-difluoro-3-{[5-(1H-indole-2-carbonyl)-4H,5H,6H,7H-[1,3]thiazolo[5,4-c]pyridin-2-yl]amino}propan-1-ol] | < 1 | < 5
32 | O=C(c1cc2ccccc2[nH]1)N1CCc2nc(NCC(CO)CC3CCOCC3)sc2C1 (stereo not drawn) [Example 226, 3-{[5-(1H-indole-2-carbonyl)-4H,5H,6H,7H-[1,3]thiazolo[5,4-c]pyridin-2-yl]amino}-2-[(oxan-4-yl)methyl]propan-1-ol] | < 1 | < 5
33 | O=C(c1cc2ccccc2[nH]1)N1CCc2nc(NCC(CO)CC3CCC3)sc2C1 (stereo not drawn) [Example 227, 2-(cyclobutylmethyl)-3-{[5-(1H-indole-2-carbonyl)-4H,5H,6H,7H-[1,3]thiazolo[5,4-c]pyridin-2-yl]amino}propan-1-ol] | < 1 | < 100
